Data taken from patent publication US20250235543A1, “MODIFIED PROTEINS AND PROTEIN DEGRADERS” (Cullgen (Shanghai), Inc., priority 2021, published 2025).
pIC50: −log10 of the molar value.

How the values were obtained:
Format in all cases: cell-based
[1] = test system: NCI-H522; experiment: Cell viability assay, NCI-H522; details: Homo sapiens, 72 h; NCI-H522, NSCLC, 3 days; read-out: Cellular Anti-proliferation activity (IC50)
Protocol: (§1) Cells were treated with CDK4/6 inhibitors palbociclib, ribociclib, or abemaciclib, or heterobifunctional compounds CPD-002 or CPD-031 following a 9-point serial dilution for 3 days.
(§2) Cells were seeded at a density of 2,000-5,000 cells per well in 96-well assay plates and treated with test compounds following a 10-point serial dilution for 3-6 days. Cell viability was determined using the CellTiter-Lumi assay kit according to the manufacturer's instructions. The dose-response curves were determined and IC50 values were calculated using the GraphPad Prism software following a nonlinear regression (least squares fit) method. Data presented was mean±standard deviation (SD) unless otherwise indicated.

[2] = test system: KURAMOCHI; experiment: Cell viability assay, KURAMOCHI; details: 72 h, OC, 3 days, read-out: Cellular Anti-proliferation activity (IC50)
Protocol: as §1, §2

[3] = test system: Hs578T; experiment: Cell viability assay, Hs578T; details: Homo sapiens, Hs-578T, 72 h, TNBC, 3 days, read-out: Cellular Anti-proliferation activity (IC50)
Protocol: as §1, §2

[4] = test system: BT-549; experiment: Cell viability assay, BT-549; details: Homo sapiens, 72 h; BT-549, TNBC, 3 days; read-out: Cellular Anti-proliferation activity (IC50)
Protocol: as §1, §2

[5] = test system: OVCAR3; experiment: Cell viability assay, OVCAR3; details: Homo sapiens, OVCAR-3, 72 h; OVCAR3, OC, 3 days; read-out: Cellular Anti-proliferation activity (IC50)
Protocol: as §1, §2

[6] = test system: Cal-62; experiment: Cell viability assay, Cal-62; details: Homo sapiens, 72 h; Cal-62, TC, 3 days; read-out: Cellular Anti-proliferation activity (IC50)
Protocol: as §1, §2

[7] = test system: Calu-1; experiment: Cell viability assay, Calu-1; details: Homo sapiens, 72 h; Calu-1, NSCLC, 3 days; read-out: Cellular Anti-proliferation activity (IC50)
Protocol: as §1, §2

[8] = test system: MDA-MB-453; experiment: Cell viability assay, MDA-MB-453; details: Homo sapiens, 72 h; MDA-MB-453, TNBC, 3 days; read-out: Cellular Anti-proliferation activity (IC50)
Protocol: as §1, §2

[9] = test system: MDA-MB-157; experiment: Cell viability assay, MDA-MB-157; details: Homo sapiens, 72 h; MDA-MB-157, TNBC, 3 days; read-out: Cellular Anti-proliferation activity (IC50)
Protocol: as §1, §2

[10] = test system: MIA PaCa-2; experiment: Cell viability assay, MIA PaCa-2; details: Homo sapiens, 72 h; MIA PaCa-2, PC, 3 days; read-out: Cellular Anti-proliferation activity (IC50)
Protocol: as §1, §2

[11] = test system: MDA-MB-468; experiment: Cell viability assay, MDA-MB-468; details: Homo sapiens, 72 h; MDA-MB-468, TNBC, 3 days; read-out: Cellular Anti-proliferation activity (IC50)
Protocol: as §1, §2

[12] = test system: P300/CBP; experiment: P300/CBP cellular protein degradation
Protocol: Cultured cells were washed with cold PBS once and lysed in cold RIPA buffer supplemented with protease inhibitors and phosphatase inhibitors (Beyotime Biotechnology). The solutions were then incubated at 4° C. for 30 min with gentle agitation to fully lysed cells. Cell lysates were centrifuged at 13,000 rpm for 10 min at 4° C. and pellets were discarded. Total protein concentrations in the lysates were determined following BCA assays (Beyotime Biotechnology). Cell lysates were mixed with Laemmli loading buffer and heated at 99° C. for 5 min. Proteins were resolved on SDS-PAGE and visualized using Western ECL Substrate kits on a ChemiDoc MP Imaging system (Bio-Rad). Protein bands were quantitated using the Image Lab software provided by Bio-Rad.

[13] = test system: T47D cells; experiment: Flow cytometric analysis of Annexin V/7-AAD stained T47D cells; details: 6 days
Protocol: ER^+ breast cancer T47D cells were treated with DMSO, palbociclib, heterobifunctional compound CPD-343, or negative control compound CPD-380 for 6 days at doses approximating IC50 and IC90 concentrations determined in FIGS. 10A and 13. Cells were harvested by trypsinization, staining was carried out using the Annexin V Apoptosis Detection Kit. The percentages of early apoptotic (Annexin V^+7-AAD^−, lower right quadrant), late apoptotic (Annexin V^+7-AAD^+, upper right quadrant) and necrotic cells (Annexin V-7-AAD^+, upper left quadrant) are indicated on dot plots. […] Furthermore, we developed one ER^+ breast cancer T47D model with acquired resistance after long period of treatment with 1 μM palbociclib (over IC90). Cells were deemed resistant when growing in the presence of palbo at the same rate as parental cells. Palbo resistance was determined by CellTiter-Lumi cell viability assay.

| pIC50 [1] | pIC50 [4] | pIC50 [5] | pIC50 [7] | pIC50 [8] | pIC50 [9] | pIC50 [10] | pIC50 [11] | Structure (SMILES) | pIC50 [2] | pIC50 [3] | pIC50 [6] | P300/CBP Degradation (100 nM) [12] | also measured |
| --- | --- | --- | --- | --- | --- | --- | --- | --- | --- | --- | --- | --- | --- |
| < 5.52 | 5.68 | < 5.00 | 4.54 | 7.52 | < 5.00 | 6.26 | 5.51 | CCN1CCN(Cc2ccc(Nc3ncc(F)c(-c4cc(F)c5nc(C)n(C(C)C)c5c4)n3)nc2)CC1 [abemaciclib] | 5.60 | 5.92 | 5.67 |  |  |
|  |  |  |  |  |  |  |  | CC(=O)N1CCc2c(c(N3CCCc4cc(-c5cnn(C)c5)c(C(F)F)cc43)nn2C2CCN(CC(=O)NCCCCCCCC(=O)Nc3ccccc3C(=O)Nc3nc(C)c([N+](=O)[O-])s3)CC2)C1 [CPD-215, 2-(8-(2-(4-(5-Acetyl-3-(7-(difluoromethyl)-6-(1-methyl-1H-pyrazol-4-yl)-3,4-dihydroquinolin-1(2H)-yl)-4,5,6,7-tetrahydro-1H-pyrazolo[4,3-c]pyridin-1-yl)piperidin-1-yl)acetamido)octanamido)-N-(4-methyl-5-nitrothiazol-2-yl)benzamide] |  |  |  | D (degradation activity < 30%) |  |
| < 5.00 | < 5.00 | < 5.00 | < 5.00 | < 5.52 | < 5.00 | < 5.52 | < 5.00 | CN(C)C(=O)c1cc2cnc(Nc3ccc(N4CCNCC4)cn3)nc2n1C1CCCC1 [ribociclib] | < 5.00 | < 5.00 | < 5.00 |  |  |
|  |  |  |  |  |  |  |  | CC(=O)N1CCc2c(c(N3CCCc4cc(-c5cnn(C)c5)c(C(F)F)cc43)nn2C2CCN(C(=O)CCCCCCCC(=O)Nc3ccccc3C(=O)Nc3nc(C)c([N+](=O)[O-])s3)CC2)C1 [CPD-204, 2-(9-(4-(5-Acetyl-3-(7-(difluoromethyl)-6-(1-methyl-1H-pyrazol-4-yl)-3,4-dihydroquinolin-1(2H)-yl)-4,5,6,7-tetrahydro-1H-pyrazolo[4,3-c]pyridin-1-yl)piperidin-1-yl)-9-oxononanamido)-N-(4-methyl-5-nitrothiazol-2-yl)benzamide] |  |  |  | D (degradation activity < 30%) |  |
|  |  |  |  |  |  |  |  | CC(=O)N1CCc2c(c(N3CCCc4cc(-c5cnn(C)c5)c(C(F)F)cc43)nn2C2CCN(CC(=O)NCCCCCCCCCCC(=O)Nc3ccccc3C(=O)Nc3nc(C)c([N+](=O)[O-])s3)CC2)C1 [CPD-218, 2-(11-(2-(4-(5-Acetyl-3-(7-(difluoromethyl)-6-(1-methyl-1H-pyrazol-4-yl)-3,4-dihydroquinolin-1(2H)-yl)-4,5,6,7-tetrahydro-1H-pyrazolo[4,3-c]pyridin-1-yl)piperidin-1-yl)acetamido)undecanamido)-N-(4-methyl-5-nitrothiazol-2-yl)benzamide] |  |  |  | D (degradation activity < 30%) |  |
| < 5.00 | < 5.00 | < 5.00 | < 5.00 | 5.57 | < 5.00 | < 5.52 | < 5.00 | CC(=O)c1c(C)c2cnc(Nc3ccc(N4CCNCC4)cn3)nc2n(C2CCCC2)c1=O [Palbociclib, palbociclib] | < 5.00 | < 5.00 | < 5.00 |  | Annexin V+ population ([13]; 100 nM): 15.9%; Annexin V+ population ([13]; 1 μM): 26.1% |
|  |  |  |  |  |  |  |  | CC(=O)N1CCc2c(c(N3CCCc4cc(-c5cnn(C)c5)c(C(F)F)cc43)nn2C2CCN(C(=O)CCCCCCC(=O)Nc3ccccc3C(=O)Nc3nc(C)c([N+](=O)[O-])s3)CC2)C1 [CPD-203, 2-(8-(4-(5-Acetyl-3-(7-(difluoromethyl)-6-(1-methyl-1H-pyrazol-4-yl)-3,4-dihydroquinolin-1(2H)-yl)-4,5,6,7-tetrahydro-1H-pyrazolo[4,3-c]pyridin-1-yl)piperidin-1-yl)-8-oxooctanamido)-N-(4-methyl-5-nitrothiazol-2-yl)benzamide] |  |  |  | D (degradation activity < 30%) |  |
|  |  |  |  |  |  |  |  | CC(=O)N1CCc2c(c(N3CCCc4cc(-c5cnn(C)c5)c(C(F)F)cc43)nn2C2CCN(CC(=O)NCCCCCCCNc3ccc(C(=O)Nc4ncc(C)s4)c(C)c3)CC2)C1 [CPD-194, 4-((7-(2-(4-(5-Acetyl-3-(7-(difluoromethyl)-6-(1-methyl-1H-pyrazol-4-yl)-3,4-dihydroquinolin-1(2H)-yl)-4,5,6,7-tetrahydro-1H-pyrazolo[4,3-c]pyridin-1-yl)piperidin-1-yl)acetamido)heptyl)amino)-2-methyl-N-(5-methylthiazol-2-yl)benzamide] |  |  |  | D (degradation activity < 30%) |  |
|  |  |  |  |  |  |  |  | CC(=O)N1CCc2c(c(N3CCCc4cc(-c5cnn(C)c5)c(C(F)F)cc43)nn2C2CCN(CC(=O)NCCCCCCCCCC(=O)Nc3ccccc3C(=O)Nc3nc(C)c([N+](=O)[O-])s3)CC2)C1 [CPD-217, 2-(10-(2-(4-(5-Acetyl-3-(7-(difluoromethyl)-6-(1-methyl-1H-pyrazol-4-yl)-3,4-dihydroquinolin-1(2H)-yl)-4,5,6,7-tetrahydro-1H-pyrazolo[4,3-c]pyridin-1-yl)piperidin-1-yl)acetamido)decanamido)-N-(4-methyl-5-nitrothiazol-2-yl)benzamide] |  |  |  | D (degradation activity < 30%) |  |
